One test concerns the target Carbonic anhydrase 1 (Homo sapiens, UniProt P00915). Kind of test: Inhibition of human recombinant carbonic anhydrase 1 by stopped flow CO2 hydration method.
Another test concerns the target Carbonic anhydrase 2 (Homo sapiens, UniProt P00918). Kind of test: Inhibition of human recombinant carbonic anhydrase 2 by stopped flow CO2 hydration method.
The target of another test is Carbonic anhydrase 9 (Homo sapiens, UniProt Q16790). Kind of test: Inhibition of human recombinant carbonic anhydrase 9 by stopped flow CO2 hydration method.
A further test deals with Carbonic anhydrase 12 (Homo sapiens, UniProt O43570). Kind of test: Inhibition of human recombinant carbonic anhydrase 12 by stopped flow CO2 hydration method.

Bounds are passed on as bounds.

Carbonic anhydrase 1, sequence (P00915 whole entry): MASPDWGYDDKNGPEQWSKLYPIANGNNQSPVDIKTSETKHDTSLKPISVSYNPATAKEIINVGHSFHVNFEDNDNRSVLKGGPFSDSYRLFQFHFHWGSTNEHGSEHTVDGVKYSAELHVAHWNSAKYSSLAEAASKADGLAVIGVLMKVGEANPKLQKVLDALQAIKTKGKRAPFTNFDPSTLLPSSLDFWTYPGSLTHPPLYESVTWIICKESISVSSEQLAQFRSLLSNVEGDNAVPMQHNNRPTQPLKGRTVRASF
Carbonic anhydrase 12, sequence (O43570 whole entry): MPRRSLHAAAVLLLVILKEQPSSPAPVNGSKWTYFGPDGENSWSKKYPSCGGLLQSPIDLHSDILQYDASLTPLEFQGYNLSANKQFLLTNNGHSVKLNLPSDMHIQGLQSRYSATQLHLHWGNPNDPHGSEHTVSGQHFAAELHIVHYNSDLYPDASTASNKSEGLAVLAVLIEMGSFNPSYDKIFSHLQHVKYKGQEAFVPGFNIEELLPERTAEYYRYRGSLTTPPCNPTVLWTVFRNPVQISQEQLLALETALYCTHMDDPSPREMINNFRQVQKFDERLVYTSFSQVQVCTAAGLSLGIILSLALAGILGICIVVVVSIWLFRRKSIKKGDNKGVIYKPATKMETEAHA

In the case of `CCOC(=O)CN1C(=O)C=C(C)OS1(=O)=O`, the Ki is > 20 µM at Carbonic anhydrase 1, > 20 µM at Carbonic anhydrase 2 and 0.047 µM on Carbonic anhydrase 9.
Regarding `CC1=CC(OCc2ccccc2Br)=NS(=O)(=O)O1`, the inhibitory constant (Ki) was > 20 µM on Carbonic anhydrase 1, > 20 µM on Carbonic anhydrase 2 and 0.249 µM on Carbonic anhydrase 9.
Consider `CC1=CC(OCC#N)=NS(=O)(=O)O1`, for which the Ki on Carbonic anhydrase 1 is 2.9 µM; at Carbonic anhydrase 2, > 20 µM; at Carbonic anhydrase 9, 0.047 µM.
The like results for `CC1=CC(OCC(=O)c2ccccc2)=NS(=O)(=O)O1` were, in that order, > 20 µM, > 20 µM and 0.0153 µM.
The like results for `CC1=CC(=O)N(Cc2ccccc2F)S(=O)(=O)O1` were, in that order, > 20 µM, > 20 µM and 0.285 µM.
As for `CC(=O)COC1=NS(=O)(=O)OC(C)=C1`, the figures for the Ki on Carbonic anhydrase 1, on Carbonic anhydrase 2 and on Carbonic anhydrase 9 were 2.49 µM, > 20 µM and > 20 µM, respectively.
As to `CC1=CC(=O)N(Cc2c(F)cccc2F)S(=O)(=O)O1`, the Ki at Carbonic anhydrase 1, at Carbonic anhydrase 2 and at Carbonic anhydrase 9 was > 20 µM throughout.
As for `CC1=CC(=O)N(Cc2ccccc2[N+](=O)[O-])S(=O)(=O)O1`, the Ki is > 20 µM on Carbonic anhydrase 1, > 20 µM at Carbonic anhydrase 2 and 0.041 µM on Carbonic anhydrase 9.
On to `CC1=CC(=O)N(Cc2cccc([N+](=O)[O-])c2)S(=O)(=O)O1`, for which the inhibitory constant (Ki) on Carbonic anhydrase 1 is > 20 µM; on Carbonic anhydrase 2 it was > 20 µM; on Carbonic anhydrase 9, 0.267 µM.
For the molecule `C=CCN1C(=O)C=C(C)OS1(=O)=O`, the Ki on Carbonic anhydrase 1 was > 20 µM; on Carbonic anhydrase 2, > 20 µM; at Carbonic anhydrase 9 it was 0.114 µM; at Carbonic anhydrase 12 it was 0.103 µM.
For `CC1=CC(=O)N(CC(=O)c2cccc([N+](=O)[O-])c2)S(=O)(=O)O1`, the figures for the inhibition constant Ki at Carbonic anhydrase 1, at Carbonic anhydrase 2 and on Carbonic anhydrase 9 were 1.3 µM, 0.0255 µM and 0.0168 µM, respectively.
Regarding `C#CCOC1=NS(=O)(=O)OC(C)=C1`, the Ki on Carbonic anhydrase 1 and on Carbonic anhydrase 2 was > 20 µM each time.
Consider `CC1=CC(OCc2ccccc2[N+](=O)[O-])=NS(=O)(=O)O1`, for which the Ki at Carbonic anhydrase 1 is > 20 µM; at Carbonic anhydrase 2 it was > 20 µM; at Carbonic anhydrase 9 it was 0.041 µM.
With `CC(=O)CN1C(=O)C=C(C)OS1(=O)=O`, the Ki at Carbonic anhydrase 1 was 15.6 µM; on Carbonic anhydrase 2, 2.18 µM; on Carbonic anhydrase 9 it was > 20 µM.
In the case of `CC1=CC(=O)N(CC(=O)c2ccccc2)S(=O)(=O)O1`, the Ki is > 20 µM on Carbonic anhydrase 1, > 20 µM at Carbonic anhydrase 2 and 0.0057 µM at Carbonic anhydrase 9.
Consider `CC1=CC(OCc2cccc([N+](=O)[O-])c2)=NS(=O)(=O)O1`, for which the Ki at Carbonic anhydrase 1, on Carbonic anhydrase 2 and at Carbonic anhydrase 9 was > 20 µM each time.
Consider `CC1=CC(=O)N(Cc2cccc(F)c2)S(=O)(=O)O1`, for which the Ki on Carbonic anhydrase 1 was > 20 µM; at Carbonic anhydrase 2, > 20 µM; at Carbonic anhydrase 9 it was 0.275 µM.
For the molecule `CC1=CC(OCc2cccc(F)c2)=NS(=O)(=O)O1`, the Ki on Carbonic anhydrase 1, on Carbonic anhydrase 2 and on Carbonic anhydrase 9 was > 20 µM each time.
Consider `CC1=CC(=O)N(Cc2ccc(C#N)cc2)S(=O)(=O)O1`, for which the results for the inhibition constant (Ki) at Carbonic anhydrase 1, on Carbonic anhydrase 2 and on Carbonic anhydrase 9 were > 20 µM, > 20 µM and 0.309 µM, respectively.
Regarding `CCOC(=O)COC1=NS(=O)(=O)OC(C)=C1`, the Ki on Carbonic anhydrase 1 was > 20 µM; on Carbonic anhydrase 2, > 20 µM; on Carbonic anhydrase 9, 0.043 µM.
Consider `CC1=CC(=O)N(Cc2cccc(Br)c2)S(=O)(=O)O1`, for which the Ki is > 20 µM on Carbonic anhydrase 1, > 20 µM at Carbonic anhydrase 2 and 0.284 µM at Carbonic anhydrase 9.
As to `C=CCOC1=NS(=O)(=O)OC(C)=C1`, the Ki is > 20 µM at Carbonic anhydrase 1, > 20 µM on Carbonic anhydrase 2 and 0.199 µM at Carbonic anhydrase 9.

For orientation: Ki means a measure of affinity in units of concentration, obtained from inhibition or displacement.
